{"source": "PubChem BioAssay AID1259411", "about": "(Chemical Carcinogenesis Research Information System (CCRIS), 2018)", "tested_on": "rodent carcinogenicity bioassays, tumor incidence", "assay": "CCRIS carcinogenicity studies", "conditions": "Dose: 0, Dose: 0", "in_short": "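Archive of carcinogenicity, mutagenicity, tumor promotion and tumor inhibition results drawn from journals, NCI reports and other sources, expert-reviewed; covers 1985-2011 and is no longer updated.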", "note": "Active and inactive are the calls of the source. How the calls were made is not given here."}
{"smiles": "Nc1ccc(Cl)cc1", "values": [{"measurement": "carcinogen call", "setting": "Species: MOUSE, Strain/Sex: B6C3F1/F, Route: GAVAGE, 3, 10, 30 MG/KG IN ACIDIFIED WATER 5D/WK FOR 103 WK (STUDY DURATION: 104 WK, 3, 10, 30 MG/KG IN ACIDIFIED WATER 5D/WK FOR 103 WK (STUDY DURATION: 104 WK", "value": "inactive; negative"}, {"measurement": "carcinogen call", "setting": "Species: MOUSE, Strain/Sex: B6C3F1/FEMALE, Route: ORAL, 2500, 5000 PPM IN DIET FOR 78 WK (STUDY DURATION: 91 WK), 2500, 5000 PPM IN DIET FOR 78 WK (STUDY DURATION: 91 WK), Tumor Site: Type of Lesion: SPLEEN: HEMANGIOMA AND HEMANGIOSARCOMA, LIVER: HEMANGIOSARCOMA, MULTIPLE ORGANS: HEMANGIOSARCOMA, Tumor Site: Type of Lesion: SPLEEN: HEMANGIOMA AND HEMANGIOSARCOMA, LIVER: HEMANGIOSARCOMA, MULTIPLE ORGANS: HEMANGIOSARCOMA", "value": "equivocal"}, {"measurement": "carcinogen call", "setting": "Species: MOUSE, Strain/Sex: B6C3F1/MALE, Route: GAVAGE, 3, 10, 30 MG/KG IN ACIDIFIED WATER 5D/WK FOR 103 WK (STUDY DURATION: 104 WK), 3, 10, 30 MG/KG IN ACIDIFIED WATER 5D/WK FOR 103 WK (STUDY DURATION: 104 WK), Tumor Site: Type of Lesion: LIVER: HEPATOCELLULAR CARCINOMA, LIVER: HEPATOCELLULAR ADENOMA OR CARCINOMA, CIRCULATORY SYSTEM: HEMANGIOSARCOMA, Tumor Site: Type of Lesion: LIVER: HEPATOCELLULAR CARCINOMA, LIVER: HEPATOCELLULAR ADENOMA OR CARCINOMA, CIRCULATORY SYSTEM: HEMANGIOSARCOMA", "value": "active; positive"}, {"measurement": "carcinogen call", "setting": "Species: MOUSE, Strain/Sex: B6C3F1/MALE, Route: ORAL, 2500, 5000 PPM IN DIET FOR 78 WK (STUDY DURATION: 91 WK), 2500, 5000 PPM IN DIET FOR 78 WK (STUDY DURATION: 91 WK), Tumor Site: Type of Lesion: SPLEEN: HEMANGIOSARCOMA, LIVER: HEMANGIOMA AND HEMANGIOSARCOMA, KIDNEY: HEMANGIOSARCOMA, MULTIPLE ORGANS: HEMANGIOSARCOM, Tumor Site: Type of Lesion: SPLEEN: HEMANGIOSARCOMA, LIVER: HEMANGIOMA AND HEMANGIOSARCOMA, KIDNEY: HEMANGIOSARCOMA, MULTIPLE ORGANS: HEMANGIOSARCOM", "value": "equivocal"}, {"measurement": "carcinogen call", "setting": "Species: RAT, Strain/Sex: F344/FEMALE, Route: GAVAGE, 2, 6, 18 MG/KG IN ACIDIFIED WATER 5D/WK FOR 103 WK (STUDY DURATION: 104 WK), 2, 6, 18 MG/KG IN ACIDIFIED WATER 5D/WK FOR 103 WK (STUDY DURATION: 104 WK), Tumor Site: Type of Lesion: SPLEEN: SARCOMA, ADRENAL GLAND: PHEOCHROMOCYTOMA", "value": "equivocal"}, {"measurement": "carcinogen call", "setting": "Species: RAT, Strain/Sex: F344/FEMALE, Route: ORAL, 250, 500 PPM IN DIET FOR 78 WK (STUDY DURATION: 102 WK), 250, 500 PPM IN DIET FOR 78 WK (STUDY DURATION: 102 WK)", "value": "inactive; negative"}, {"measurement": "carcinogen call", "setting": "Species: RAT, Strain/Sex: F344/MALE, Route: GAVAGE, 2, 6, 18 MG/KG IN ACIDIFIED WATER 5D/WK FOR 103 WK (STUDY DURATION: 104 WK), 2, 6, 18 MG/KG IN ACIDIFIED WATER 5D/WK FOR 103 WK (STUDY DURATION: 104 WK), Tumor Site: Type of Lesion: ADRENAL MEDULLA: PHEOCHROMOCYTOMA, ADRENAL MEDULLA: PHEOCHROMOCYTOMA OR MALIGNANT PHEOCHROMOCYTOMA, SPLEEN: FIBROSARCOMA, Tumor Site: Type of Lesion: ADRENAL MEDULLA: PHEOCHROMOCYTOMA, ADRENAL MEDULLA: PHEOCHROMOCYTOMA OR MALIGNANT PHEOCHROMOCYTOMA, SPLEEN: FIBROSARCOMA", "value": "active; positive"}, {"measurement": "carcinogen call", "setting": "Species: RAT, Strain/Sex: F344/MALE, Route: ORAL, 250, 500 PPM IN DIET FOR 78 WK (STUDY DURATION: 102 WK), 250, 500 PPM IN DIET FOR 78 WK (STUDY DURATION: 102 WK), Tumor Site: Type of Lesion: SPLEEN OR PERITONEUM: SARCOMA", "value": "active; positive"}, {"measurement": "carcinogen call", "setting": "Species: RAT, Strain/Sex: F344/MALE, Route: ORAL, 250, 500 PPM IN DIET FOR 78 WK (STUDY DURATION: 102 WK), 250, 500 PPM IN DIET FOR 78 WK (STUDY DURATION: 102 WK), Tumor Site: Type of Lesion: SPLEEN: FIBROMA AND SARCOMA", "value": "equivocal"}]}
